From patent publication US4087432A, “1H-imidazo(4,5-b)pyridine compounds” (Eli Lilly and Company, priority 1975, dated 1978)

How the values were obtained:
[1] = test system: Pigweed; experiment: Preemergent injury rating, pigweed; assay type: in vivo, rough pigweed; design: key: injury rating scale on which 4 = death; details: 2 lbs/acre
Description: (§1) Various of the compounds to be employed as active agent in accordance with the present invention were evaluated for preemergent application to various species of plants. In this evaluation, a soil was prepared consisting of one part masonry sand and one part shredded top soil blended together in a cement mixer. One gallon of this soil was placed in a 25 × 35 cm. galvanized flat and was patted down with a bench brush until level. A three-row marker was used to make 21/2 cm. deep furrows in approximately two-fifths of the flat. Crop seeds consisting of four kernels of corn, five cotton seeds and five soybean seeds were placed in these furrows. A four-row template was then placed on the remaining soil and the indicated approximate numbers of each of the following seeds were planted, one species to each section: foxtail (millet), 80-100 seeds; velvetleaf (40-50 seeds); rough pigweed (150-250 seeds); and large crabgrass (100-150 seeds).
(§2) Sufficient soil was added to cover the entire flat. Thus, the weed seeds were covered to a depth of about 6 mm. and the crop seeds were covered to a depth of about 3 cm.
(§3) In assaying the effect of the composition as preemergent herbicides, a flat prepared as above, taken either on the day of planting or on the next day, was placed in a chamber equipped with a turntable and an air exhaust. The herbicidal composition, either a spray-type emulsion or a wettable powder, was applied to the flat with a modified DeVilbiss atomizer hooked to an air source. Twelve and one-half milliliters of the composition under test were applied to each flat either on the day of planting or the succeeding day. Injury ratings and observations as to type of injury were made eleven to twelve days after treatment. The injury rating scale used was as follows:
(§4) 4--death When more than one determination was carried out at a given rate, an average value was calculated for the injury rating. Each compound evaluated was formulated as a spray by one of the following procedures. In one method the particular compound was wetted by grinding in a mortar with one part of polyoxyethylene sorbitan monolaurate. Five hundred parts of water were added slowly to the resultant creamy paste to give an aqueous dispersion with a surfactant concentration of 0.2 percent. This dispersion was entirely satisfactory for spray application. In a second procedure the compound was dissolved in one volume of acetone, and the acetone solution was diluted with nineteen volumes of water containing 0.1 percent of polyoxyethylene sorbitan monolaurate.
(§5) In the following table setting forth the results of the evaluation, column 1 gives the name of the compound under test; column 2, the rate in pounds per acre at which the compound was applied to the test flat; and the remaining columns, the injury to the particular plant seeds or seedlings as measured by the foregoing scale.

[2] = test system: Pigweed; experiment: Postemergent injury rating, pigweed; assay type: in vivo, rough pigweed; design: key: injury rating scale, 4 = death
Description: as §1, §2, §3, §4
(§6) Representative compounds of the present invention were evaluated for postemergent application to plants including corn and several weed species. The evaluation was carried out in accordance with the procedures of Examples 49-52 except that the test solutions were applied about 9-12 days after the preparation and seeding of the flats.

[3] = test system: Foxtail; experiment: Preemergent injury rating, foxtail; assay type: in vivo, foxtail (millet); design: key: injury rating scale on which 4 = death
Description: as §1, §2, §3, §4, §5

[4] = test system: Cotton; experiment: Postemergent injury rating, cotton; assay type: in vivo
Description: as §1, §2, §3, §4, §6

[5] = test system: Soybean; experiment: Preemergent injury rating, soybean; assay type: in vivo; design: key: injury rating scale on which 4 = death
Description: as §1, §2, §3, §4, §5

[6] = test system: Foxtail; experiment: Postemergent injury rating, foxtail; assay type: in vivo, foxtail (millet); design: key: injury rating scale, 4 = death
Description: as §1, §2, §3, §4, §6

[7] = test system: Velvet Leaf; experiment: Preemergent injury rating, velvetleaf; assay type: in vivo; design: key: injury rating scale on which 4 = death; details: 2 lbs/acre
Description: as §1, §2, §3, §4, §5

[8] = test system: Crabgrass; experiment: Preemergent injury rating, crabgrass; assay type: in vivo, large crabgrass; design: key: injury rating scale on which 4 = death
Description: as §1, §2, §3, §4, §5

[9] = test system: Soybean; experiment: Postemergent injury rating, soybean; assay type: in vivo
Description: as §1, §2, §3, §4, §6

[10] = test system: Crabgrass; experiment: Postemergent injury rating, crabgrass; assay type: in vivo, large crabgrass; design: key: injury rating scale, 4 = death
Description: as §1, §2, §3, §4, §6

[11] = test system: Corn; experiment: Postemergent injury rating, corn; assay type: in vivo; design: key: injury rating scale, 4 = death
Description: as §1, §2, §3, §4, §6

[12] = test system: Corn; experiment: Preemergent injury rating, corn; assay type: in vivo; design: key: injury rating scale on which 4 = death
Description: as §1, §2, §3, §4, §5

[13] = test system: Cotton; experiment: Preemergent injury rating, cotton; assay type: in vivo; design: key: injury rating scale on which 4 = death
Description: as §1, §2, §3, §4, §5

[14] = test system: Velvet Leaf; experiment: Postemergent injury rating, velvetleaf; assay type: in vivo
Description: as §1, §2, §3, §4, §6

CS(=O)(=O)c1cnc2nc(C(F)(F)F)n(O)c2c1 [6-(methylsulfonyl)-1-hydroxy-2-(trifluoromethyl)-1H-imidazo(4,5-b)pyridine]
Injury Rating, Pigweed [1]: 3 | Injury Rating, Pigweed ([2]; 1 lbs/acre): 3 | Injury Rating, Pigweed ([2]; 2 lbs/acre): 4 | Injury Rating, Foxtail ([3]; 2 lbs/acre): 2 | Injury Rating, Cotton ([4]; 1 lbs/acre): 3 | Injury Rating, Cotton ([4]; 2 lbs/acre): 4 | Injury Rating, Soybean ([5]; 2 lbs/acre): 2 | Injury Rating, Foxtail ([6]; 1 lbs/acre): 4 | Injury Rating, Foxtail ([6]; 2 lbs/acre): 4 | Injury Rating, Velvet Leaf [7]: 2 | Injury Rating, Crabgrass ([8]; 2 lbs/acre): 2 | Injury Rating, Soybean ([9]; 1 lbs/acre): 3 | Injury Rating, Soybean ([9]; 2 lbs/acre): 4 | Injury Rating, Crabgrass ([10]; 1 lbs/acre): 2 | Injury Rating, Crabgrass ([10]; 2 lbs/acre): 2 | Injury Rating, Corn ([11]; 1 lbs/acre): 1 | Injury Rating, Corn ([11]; 2 lbs/acre): 2 | Injury Rating, Corn ([12]; 2 lbs/acre): 0 | Injury Rating, Cotton ([13]; 2 lbs/acre): 0

On1c(C(F)(F)F)nc2ncc(C(F)(F)F)cc21 [1-hydroxy-2,6-bis(trifluoromethyl)-1H-imidazo(4,5-b)pyridine]
Injury Rating, Velvet Leaf ([14]; 1 lbs/acre): 4 | Injury Rating, Velvet Leaf ([14]; 2 lbs/acre): 4 | Injury Rating, Velvet Leaf ([14]; 4 lbs/acre): 4 | Injury Rating, Velvet Leaf ([14]; 8 lbs/acre): 4 | Injury Rating, Pigweed ([2]; 1 lbs/acre): 4 | Injury Rating, Pigweed ([2]; 2 lbs/acre): 4 | Injury Rating, Pigweed ([2]; 4 lbs/acre): 4 | Injury Rating, Pigweed ([2]; 8 lbs/acre): 4 | Injury Rating, Foxtail ([3]; 8 lbs/acre): 4 | Injury Rating, Cotton ([4]; 1 lbs/acre): 4 | Injury Rating, Cotton ([4]; 2 lbs/acre): 4 | Injury Rating, Cotton ([4]; 4 lbs/acre): 4 | Injury Rating, Cotton ([4]; 8 lbs/acre): 4 | Injury Rating, Soybean ([5]; 8 lbs/acre): 3 | Injury Rating, Foxtail ([6]; 1 lbs/acre): 4 | Injury Rating, Foxtail ([6]; 2 lbs/acre): 4 | Injury Rating, Foxtail ([6]; 4 lbs/acre): 4 | Injury Rating, Foxtail ([6]; 8 lbs/acre): 4 | Injury Rating, Crabgrass ([8]; 8 lbs/acre): 4 | Injury Rating, Soybean ([9]; 1 lbs/acre): 4 | Injury Rating, Soybean ([9]; 2 lbs/acre): 4 | Injury Rating, Soybean ([9]; 4 lbs/acre): 4 | Injury Rating, Soybean ([9]; 8 lbs/acre): 4 | Injury Rating, Crabgrass ([10]; 1 lbs/acre): 4 | Injury Rating, Crabgrass ([10]; 2 lbs/acre): 4 | Injury Rating, Crabgrass ([10]; 4 lbs/acre): 4 | Injury Rating, Crabgrass ([10]; 8 lbs/acre): 4 | Injury Rating, Corn ([11]; 1 lbs/acre): 1 | Injury Rating, Corn ([11]; 2 lbs/acre): 4 | Injury Rating, Corn ([11]; 4 lbs/acre): 4 | Injury Rating, Corn ([11]; 8 lbs/acre): 4 | Injury Rating, Corn ([12]; 8 lbs/acre): 3 | Injury Rating, Cotton ([13]; 8 lbs/acre): 4
